ChEMBL document CHEMBL4819155, “Phenolic compounds from the leaves of Crataegus pinnatifida Bge. var. major N.E.Br. And their lipid-lowering effects” (2021)
Active and inactive are the calls of the source. The rule behind the calls is not given here.

Legend:
HepG2 [1] = test: Hypolipidemic activity against oleic acid/palmitic acid-induced hyperlipidemia in human HepG2 cells assessed as reduction in triglycerides content; type: functional, cell-based
HepG2 [2] = test: Hypolipidemic activity against oleic acid-induced lipid accumulation in human HepG2 cell model assessed reduction in total cholesterol level; type: functional, cell-based
HepG2 [3] = test: Hypolipidemic activity against oleic acid/palmitic acid-induced hyperlipidemia in human HepG2 cells assessed as reduction in triglycerides content relative to control group; type: functional
HepG2 [4] = test: Hypolipidemic activity against oleic acid/palmitic acid-induced hyperlipidemia in human HepG2 cells assessed reduction in total cholesterol level at 0.001 to 10 uM; type: functional, cell-based; details: dose 0.001-10 µM
HepG2 [5] = test: Hypolipidemic activity against oleic acid/palmitic acid-induced hyperlipidemia in human HepG2 cells assessed as decrease in triglycerides level at 0.01 to 1 uM; type: functional, cell-based; details: dose 0.01-1 µM
HepG2 [6] = test: Hypolipidemic activity against oleic acid/palmitic acid-induced hyperlipidemia in human HepG2 cells assessed as triglycerides content measured per gm of protein; type: functional
HepG2 [7] = test: Hypolipidemic activity against oleic acid/palmitic acid-induced hyperlipidemia in human HepG2 cells assessed as decrease in triglycerides level at 0.001 to 10 uM; type: functional, cell-based; details: dose 0.001-10 µM
HepG2 [8] = test: Hypolipidemic activity against oleic acid/palmitic acid-induced hyperlipidemia in human HepG2 cells assessed reduction in total cholesterol level at 10 uM; type: functional, cell-based
HepG2 [9] = test: Hypolipidemic activity against oleic acid/palmitic acid-induced hyperlipidemia in human HepG2 cells assessed as decrease in triglycerides level at 0.001 to 1 uM; type: functional, cell-based; details: dose 0.001-1 µM

SMILES | Activity (HepG2 [1]) | Activity (HepG2 [6]) [mmol] | further results
CCC(C)(C)C(=O)O[C@H]1C[C@@H](C)C=C2C=C[C@H](C)[C@H](CC[C@@H]3C[C@@H](O)CC(=O)O3)[C@H]21 | Active |  | Activity (HepG2 [2]): Active
O=c1cc(-c2ccc(O)cc2)oc2c([C@@H]3O[C@H](CO)[C@@H](O)[C@H](O)[C@H]3O)c(O)cc(O)c12 |  | 0.283 | inhibition (HepG2 [3]; dose or concentration not given here): 34.6%; Activity (HepG2 [4]): Dose-Dependent Effect; Activity (HepG2 [5]): Dose-Dependent Effect
O=c1cc(-c2ccc(O)cc2)oc2c([C@@H]3O[C@H](CO)[C@@H](O[C@@H]4O[C@H](CO)[C@@H](O)[C@H](O)[C@H]4O)[C@H](O)[C@H]3O)c(O)cc(O)c12 |  | 0.28 | inhibition (INH) (HepG2 [3]): 35.34%; Activity (HepG2 [7]): Active; Activity (HepG2 [8]): Active
Oc1cc(O)c2c(c1)O[C@H](c1ccc(O)c(O)c1)[C@H](O)C2 | Active |  | 
O=c1c(O[C@@H]2O[C@H](CO)[C@H](O)[C@H](O)[C@H]2O)c(-c2ccc(O)c(O)c2)oc2cc(O)cc(O)c12 | Active |  | 
O=C1C[C@@H](c2ccc(O)c(O)c2)c2c(cc3c(c2O)C[C@@H](O)[C@@H](c2ccc(O)c(O)c2)O3)O1 | Active |  | 
O=c1c(O)c(-c2ccc(O)c(O)c2)oc2cc(O)cc(O)c12 | Active |  | 
Oc1cc(O)c2c(c1)O[C@H](c1ccc(O)c(O)c1)[C@@H](O)C2 | Active |  | 
O=C1C[C@@H](c2ccc(O)c(O)c2)c2c(cc(O)c3c2O[C@H](c2cc(O)cc(O)c2)[C@H](O)C3)O1 |  | 0.28 | inhibition (INH) (HepG2 [3]): 34.92%; Activity (HepG2 [9]): Dose-Dependent Effect; Activity (HepG2 [4]): Dose-Dependent Effect
C[C@@H]1O[C@@H](O[C@@H]2[C@@H](O)[C@H](O)[C@@H](CO)O[C@H]2c2c(O)cc(O)c3c(=O)cc(-c4ccc(O)cc4)oc23)[C@H](O)[C@H](O)[C@H]1O | Active |  | 
O=C(/C=C/c1ccc(O)c(O)c1)O[C@@H]1C[C@](O)(C(=O)O)C[C@@H](O)[C@H]1O | Active |  | 
O=c1c(O[C@@H]2O[C@H](CO)[C@@H](O)[C@H](O)[C@H]2O)c(-c2ccc(O)c(O)c2)oc2cc(O)cc(O)c12 [ISOQUERCETIN] |  | 0.308 | inhibition (INH) (HepG2 [3]): 30.42%; Activity (HepG2 [7]): Active; Activity (HepG2 [2]): inactive
COc1cc(CO[C@@H]2O[C@H](CO)[C@@H](O)[C@H](O)[C@H]2O)cc(OC)c1OC | Active |  | 
